7 compounds from patent US7169808B2, “Compounds useful for the preparation of medicaments with phosphodiesterase IV inhibitory activity” (Sigma-Tau Industrie Farmaceutiche Riunite S.p.A., priority 2000, dated 2007) can be followed below.

The test system of data set [1] is PDE4 Activity (L)PDE4. In words: IC50 for inhibition of PDE IV activity. It is filed as biochemical. The conditions noted are these: origin Human. The text has this:
(§1) The following determination of IC50 for inhibition of PDE IV activity and competition at the rolipram receptor, conducted with standard processes, e.g. as described by Duplantier A. J. et al., J. Med. Chem. 39: 120, 1996 and by Thorphy T. J. et al., J Pharmacol. Exp. Ther., 263: 1195, 1992 have yielded the following results for compounds figuring among the examples envisaged within the framework of the invention described herein

For data set [2], the target named is T1, Rolipram receptor (H)PDE4.
T1 construct: IC50(μM) Rolipram receptor (H)PDE4; other: origin Mouse brain
In words: competition at the rolipram receptor. It is filed as binding, Mouse. The note with it: origin Mouse brain.
Excerpt: as §1
(§2) N.C. means value not calculable because of no inhibition at the highest test concentration, however it means low affinity for rolipram receptor.

The test system of data set [3] is Rolipram receptor (H)PDE4. In words: competition at the rolipram receptor. It is filed as binding, Mouse. The conditions noted are these: ratio IC50 (H)PDE4 / IC50 (L)PDE4.
Excerpt: as §1, §2

Data set [4] concerns PDE IV. In words: PDE IV inhibition at a single concentration. It is filed as biochemical. The conditions noted are these: human; concentration 100 μM. The text has this: Assays conducted with standard procedures, e.g. as described by Cortij et al., Br. J. Pharmacol. 108:562, 1993 or Nicholsen CD et al., Trends Pharmacol. Sci. 12:19, 1991 have yielded the following results for compounds figuring among the examples envisaged within the framework of the invention described herein.

Data set [5] concerns PDE3. The data set can be described thus: PDE selectivity, PDE3. It is filed as biochemical, human. From the text: (§3) These assays have yielded the following results for compounds figuring among the examples envisaged within the framework of the invention described herein.
Data set [6] has as its system PDE1. The data set can be described thus: PDE selectivity, PDE1. It is filed as biochemical, bovine.
Excerpt: as §3

The test system of data set [7] is PDE6. The data set can be described thus: PDE selectivity, PDE6. It is filed as biochemical, bovine.
Excerpt: as §3

Data set [8] concerns PDE4. In words: PDE selectivity, PDE4. It is filed as biochemical, human.
Excerpt: as §3

The target in data set [9] is PDE2 (Homo sapiens, UniProt O00408). In words: PDE selectivity, PDE2. It is filed as biochemical.
Excerpt: as §3

For data set [10], the target named is PDE5 (Homo sapiens, UniProt O76074). The data set can be described thus: PDE selectivity, PDE5. It is filed as biochemical.
Excerpt: as §3

Structures are written as SMILES.

Chain of PDE2 (O00408 whole entry): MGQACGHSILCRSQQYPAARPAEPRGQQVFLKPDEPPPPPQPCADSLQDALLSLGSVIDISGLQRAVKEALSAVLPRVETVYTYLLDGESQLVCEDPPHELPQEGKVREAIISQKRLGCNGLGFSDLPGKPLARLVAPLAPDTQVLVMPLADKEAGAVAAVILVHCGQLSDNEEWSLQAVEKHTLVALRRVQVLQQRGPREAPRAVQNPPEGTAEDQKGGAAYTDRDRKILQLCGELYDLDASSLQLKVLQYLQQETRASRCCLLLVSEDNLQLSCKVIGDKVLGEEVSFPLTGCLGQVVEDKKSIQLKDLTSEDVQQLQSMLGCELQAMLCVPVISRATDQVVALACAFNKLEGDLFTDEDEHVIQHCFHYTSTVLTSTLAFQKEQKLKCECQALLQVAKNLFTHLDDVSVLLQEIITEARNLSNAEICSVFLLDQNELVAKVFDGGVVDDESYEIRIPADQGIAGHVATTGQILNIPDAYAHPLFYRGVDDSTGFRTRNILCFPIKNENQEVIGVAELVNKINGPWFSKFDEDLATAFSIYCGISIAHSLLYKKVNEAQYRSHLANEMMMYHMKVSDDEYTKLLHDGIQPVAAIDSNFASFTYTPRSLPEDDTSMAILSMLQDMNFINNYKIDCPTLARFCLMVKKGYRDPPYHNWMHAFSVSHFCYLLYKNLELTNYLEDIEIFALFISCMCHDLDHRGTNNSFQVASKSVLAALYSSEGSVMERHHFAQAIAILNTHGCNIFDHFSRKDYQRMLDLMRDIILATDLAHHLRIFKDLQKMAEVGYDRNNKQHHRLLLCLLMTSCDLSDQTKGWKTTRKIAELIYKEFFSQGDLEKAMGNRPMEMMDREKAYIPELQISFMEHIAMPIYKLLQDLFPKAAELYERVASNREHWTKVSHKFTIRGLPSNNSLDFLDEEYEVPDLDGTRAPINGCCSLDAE

Broadly, the IC50 is the point on the concentration scale where inhibition reaches its midpoint. The % inhibition is the drop in the measured response relative to a control, in per cent. A lower % inhibition goes with a response near the control. With `COC(=O)C(CC(=O)NO)Cc1ccc(OC)c(OC2CCCC2)c1` (racemic) [ST 1505, (R,S)-3-methoxycarbonyl-4-(3-cyclopentyloxy-4-methoxyphenyl)butane-hydroxamic acid], the IC50 stood at 4.7 µM in [1] and 3.5 µM in data set [2]. Also, the H/L in data set [3] turned out to be 0.74. Also, the “% inhibition” value in data set [4] is recorded as 86%.
On to `COC(=O)/C(=C/c1ccc(OC)c(OC2CCCC2)c1)CC(=O)O` [ST 1503, (3E)-4-[3-(cyclopentyloxy)-4-methoxyphenyl]-3-(methoxycarbonyl)-3-butenoic acid], for which, in data set [1], the 50% inhibitory concentration (IC50) came out at 6.2 µM.
For `COC(=O)C(CC(=O)O)Cc1ccc(OC)c(OC2CCCC2)c1` (centres unmarked) [ST 1504], the IC50 in data set [1] is 8.7 µM; in data set [2] it was above 10 µM. Further, in data set [3], the H/L is on record as above 1.15. Besides, in [4], the “% inhibition” value is reported as 84%.
A word on the melting point: it is the temperature of the solid-liquid transition. Consider `COc1ccc(C(=O)CCC(=O)O)cc1OC1CCCC1` [ST 1689, 4-[3-(cyclopentyloxy)-4-methoxyphenyl]-4-oxo-butanoic acid], for which the melting point lay in the range of 111 to 113 °C.
As usually defined, the inhibition is the drop in the measured response relative to a control, in per cent. As for `COC(=O)/C(=C/c1ccc(OC)c(OC2CCCC2)c1)CC(=O)NO` [ST 1701, methyl (2E)-3-[3-(cyclopentyloxy)-4-methoxyphenyl]-2-[2-(hydroxyamino)-2-oxoethyl]-2-propenoate], the figures for the half-maximal inhibitory concentration (IC50) in [1] and in [2] were 1.2 µM and 0.615 µM, respectively. Moreover, the “% PDE inhibition at 100 μM PDE3 (human)” value in [5] worked out at 52%. Besides, in [6], the “% PDE inhibition at 100 μM PDE1 (bovine)” value worked out at 42%. Also, in data set [3], the H/L is on record as 0.51. The “% PDE inhibition at 100 μM PDE6 (bovine)” value in data set [7] worked out at 58%. Besides, the “% inhibition” value in [4] came out at 88%. Also, the “% PDE inhibition at 100 μM PDE4 (human)” value in [8] is on record as 94%. Besides, the inhibition at 100 µM in data set [9] was 16%; in [10], 30%.
`COC(=O)C/C(=C\c1ccc(OC)c(OC2CCCC2)c1)C(=O)OC` [ST 1945, methyl (3E)-3-methoxycarbonyl-4-(3-cyclopentoxy-4-methoxyphenyl)-3-butenoate]: the figures for the IC50 in data set [1] and in [2] were 0.19 µM and 0.571 µM, respectively. Besides, the H/L in [3] amounted to 0.33.
On the same counts, the results for `COC(=O)/C(=C/c1ccc(OC)c(OC2CCCC2)c1)CCC(=O)O` [ST 1977, (4E)-5-[3-(ciclopentyloxy)-4-methoxyphenyl]-4-(methoxycarbonyl)-4-pentenoic acid] are 1.3 µM, 9.27 µM and 7.13.
